Data taken from ChEMBL document CHEMBL1201862, “PubChem BioAssay data set” (2004).
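48-hour exposure; five concentrations; linearly interpolated endpoints. GI50: concentration for 50% inhibition of growth.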 Calls of active or inactive are those of the source. Cut-off read from the data, not from the text of the source: active = GI50 up to about 1.1 µM and inactive = higher.

Legend:
Experiment in all cases: NCI anticancer screen, dose series, 48 h
[1] = tested on: Malme-3M
[2] = tested on: KM12
[3] = tested on: OVCAR-3
[4] = tested on: A498
[5] = tested on: HOP-92
[6] = tested on: SN12C
[7] = tested on: OVCAR-4
[8] = tested on: UACC-62
[9] = tested on: SK-MEL-5
[10] = tested on: SW-620
[11] = tested on: SK-MEL-28
[12] = tested on: CCRF-CEM
[13] = tested on: K562
[14] = tested on: SF-268
[15] = tested on: RPMI-8226
[16] = tested on: OVCAR-5
[17] = tested on: U-251
[18] = tested on: SNB-75
[19] = tested on: HCT-116
[20] = tested on: SF-295

Compound: O[C@@]12Cc3c([nH]c4ccccc34)[C@@H]3Oc4cccc5c4[C@@]31CCN(CC1CC1)[C@@H]2C5
- GI50 [1]: 19.5 µM (inactive)
- GI50 [2]: 39.7 µM (inactive)
- GI50 [3]: 22.3 µM (inactive)
- GI50 [4]: 25.2 µM (inactive)
- GI50 [5]: 12.4 µM (inactive)
- GI50 [6]: 21.7 µM (inactive)
- GI50 [7]: 22.5 µM (inactive)
- GI50 [8]: 17.2 µM (inactive)
- GI50 [9]: 24.3 µM (inactive)
- GI50 [10]: 11.4 µM (inactive)
- GI50 [11]: 12.7 µM (inactive)
- GI50 [12]: 11.3 µM (inactive)
- GI50 [13]: 22.6 µM (inactive)
- GI50 [14]: 19.5 µM (inactive)
- GI50 [15]: 19.4 µM (inactive)
- GI50 [16]: 29 µM (inactive)
- GI50 [17]: 39.7 µM (inactive)

Compound: CNS(=O)(=O)NN(C)S(=O)(=O)c1ccc(F)cc1
- GI50 [1]: > 100 µM (inactive)
- GI50 [18]: 47 µM (inactive)
- GI50 [2]: > 100 µM (inactive)
- GI50 [3]: > 100 µM (inactive)
- GI50 [4]: > 100 µM (inactive)
- GI50 [5]: > 100 µM (inactive)
- GI50 [6]: > 100 µM (inactive)
- GI50 [7]: > 100 µM (inactive)
- GI50 [8]: > 100 µM (inactive)
- GI50 [9]: > 100 µM (inactive)
- GI50 [10]: > 100 µM (inactive)
- GI50 [11]: > 100 µM (inactive)
- GI50 [19]: > 100 µM (inactive)
- GI50 [12]: > 100 µM (inactive)
- GI50 [13]: > 100 µM (inactive)
- GI50 [14]: > 100 µM (inactive)
- GI50 [15]: > 100 µM (inactive)
- GI50 [16]: > 100 µM (inactive)
- GI50 [17]: > 100 µM (inactive)
- GI50 [20]: > 100 µM (inactive)

Compound: Cc1cc(C)n(-c2c(O)ccc(O)c2-n2nc(C)cc2C)n1
- GI50 [1]: > 100 µM (inactive)
- GI50 [18]: > 100 µM (inactive)
- GI50 [2]: > 100 µM (inactive)
- GI50 [3]: > 100 µM (inactive)
- GI50 [4]: > 100 µM (inactive)
- GI50 [5]: > 100 µM (inactive)
- GI50 [6]: > 100 µM (inactive)
- GI50 [7]: > 100 µM (inactive)
- GI50 [8]: > 100 µM (inactive)
- GI50 [9]: > 100 µM (inactive)
- GI50 [10]: > 100 µM (inactive)
- GI50 [11]: > 100 µM (inactive)
- GI50 [12]: > 100 µM (inactive)
- GI50 [13]: > 100 µM (inactive)
- GI50 [14]: > 100 µM (inactive)
- GI50 [15]: > 100 µM (inactive)
- GI50 [16]: > 100 µM (inactive)
- GI50 [17]: > 100 µM (inactive)
- GI50 [20]: 81.3 µM (inactive)

Compound: CC1=NC=C(O)c2ccccc2O1
- GI50 [1]: > 100 µM (inactive)
- GI50 [2]: > 100 µM (inactive)
- GI50 [3]: > 100 µM (inactive)
- GI50 [4]: > 100 µM (inactive)
- GI50 [5]: > 100 µM (inactive)
- GI50 [6]: > 100 µM (inactive)
- GI50 [7]: > 100 µM (inactive)
- GI50 [8]: > 100 µM (inactive)
- GI50 [10]: > 100 µM (inactive)
- GI50 [11]: > 100 µM (inactive)
- GI50 [19]: > 100 µM (inactive)
- GI50 [12]: > 100 µM (inactive)
- GI50 [13]: > 100 µM (inactive)
- GI50 [14]: > 100 µM (inactive)
- GI50 [15]: > 100 µM (inactive)
- GI50 [17]: > 100 µM (inactive)
- GI50 [20]: 45 µM (inactive)

Compound: CSc1cc(-c2cc3ccccc3o2)oc(=O)c1C#N
- GI50 [1]: 3.6 µM (inactive)
- GI50 [18]: 16.3 µM (inactive)
- GI50 [2]: > 100 µM (inactive)
- GI50 [4]: > 100 µM (inactive)
- GI50 [5]: 0.301 µM (active)
- GI50 [6]: > 100 µM (inactive)
- GI50 [7]: > 100 µM (inactive)
- GI50 [9]: > 100 µM (inactive)
- GI50 [10]: > 100 µM (inactive)
- GI50 [11]: > 100 µM (inactive)
- GI50 [19]: > 100 µM (inactive)
- GI50 [12]: > 100 µM (inactive)
- GI50 [13]: > 100 µM (inactive)
- GI50 [14]: > 100 µM (inactive)
- GI50 [15]: 27.7 µM (inactive)
- GI50 [16]: 12.2 µM (inactive)
- GI50 [17]: > 100 µM (inactive)
- GI50 [20]: 40.9 µM (inactive)

Compound: CN(CCCNc1ccc2ncn3c4ccccc4c(=O)c1c23)CCCN1C(=O)c2cccc3cc([N+](=O)[O-])cc(c23)C1=O
- GI50 [1]: 0.0244 µM (active)
- GI50 [18]: 0.018 µM (active)
- GI50 [2]: 0.0292 µM (active)
- GI50 [3]: 1.1 µM (active)
- GI50 [4]: 1.4 µM (inactive)
- GI50 [5]: 1.04 µM (active)
- GI50 [6]: 0.0125 µM (active)
- GI50 [7]: 0.131 µM (active)
- GI50 [9]: 0.01 µM (active)
- GI50 [10]: 0.00325 µM (active)
- GI50 [11]: 1.12 µM (inactive)
- GI50 [19]: 0.00174 µM (active)
- GI50 [12]: 0.0614 µM (active)
- GI50 [13]: 0.0201 µM (active)
- GI50 [14]: 0.0247 µM (active)
- GI50 [15]: 0.0132 µM (active)
- GI50 [16]: 1.14 µM (inactive)
- GI50 [17]: 0.00966 µM (active)
- GI50 [20]: 0.0134 µM (active)

Compound: COC(=O)C1=C(C(=O)OC)C2(C)C=CC1O2 (stereo not drawn)
- GI50 [1]: 2.92 µM (inactive)
- GI50 [18]: 24.3 µM (inactive)
- GI50 [3]: 0.55 µM (active)
- GI50 [4]: 23.7 µM (inactive)
- GI50 [5]: 5.01 µM (inactive)
- GI50 [6]: 17.5 µM (inactive)
- GI50 [7]: 13.1 µM (inactive)
- GI50 [8]: 17.6 µM (inactive)
- GI50 [9]: 18.5 µM (inactive)
- GI50 [10]: 4.68 µM (inactive)
- GI50 [11]: 16 µM (inactive)
- GI50 [19]: 10.5 µM (inactive)
- GI50 [13]: 4.52 µM (inactive)
- GI50 [14]: 31 µM (inactive)
- GI50 [15]: 1.91 µM (inactive)
- GI50 [16]: 17.6 µM (inactive)
- GI50 [17]: 18 µM (inactive)

Compound: CNC1=C(C)C(=O)C2=C(C1=O)C(COC(N)=O)C1(OC)C3NC3CN21 (stereo not drawn)
- GI50 [1]: 0.571 µM (active)
- GI50 [18]: 0.141 µM (active)
- GI50 [2]: 0.413 µM (active)
- GI50 [3]: 3.36 µM (inactive)
- GI50 [4]: 0.632 µM (active)
- GI50 [5]: > 10 µM (inactive)
- GI50 [7]: 2.95 µM (inactive)
- GI50 [8]: 0.221 µM (active)
- GI50 [9]: 0.0445 µM (active)
- GI50 [10]: 0.385 µM (active)
- GI50 [11]: 1.29 µM (inactive)
- GI50 [19]: 0.209 µM (active)
- GI50 [12]: 4.19 µM (inactive)
- GI50 [13]: 4.07 µM (inactive)
- GI50 [14]: 0.783 µM (active)
- GI50 [15]: 3.13 µM (inactive)
- GI50 [16]: 4.91 µM (inactive)
- GI50 [17]: 0.883 µM (active)
- GI50 [20]: 0.0853 µM (active)

Compound: O=C1Sc2ccccc2/C1=N/Nc1ccccc1[N+](=O)[O-]
- GI50 [1]: 94.8 µM (inactive)
- GI50 [18]: 0.281 µM (active)
- GI50 [2]: > 100 µM (inactive)
- GI50 [3]: > 100 µM (inactive)
- GI50 [4]: > 100 µM (inactive)
- GI50 [5]: > 100 µM (inactive)
- GI50 [7]: 36.1 µM (inactive)
- GI50 [8]: > 100 µM (inactive)
- GI50 [9]: 65.2 µM (inactive)
- GI50 [10]: > 100 µM (inactive)
- GI50 [11]: > 100 µM (inactive)
- GI50 [19]: > 100 µM (inactive)
- GI50 [12]: > 100 µM (inactive)
- GI50 [13]: > 100 µM (inactive)
- GI50 [14]: 36.6 µM (inactive)
- GI50 [15]: > 100 µM (inactive)
- GI50 [16]: > 100 µM (inactive)
- GI50 [17]: > 100 µM (inactive)
- GI50 [20]: > 100 µM (inactive)

Compound: O=C1C(=O)c2ccccc2C=C1[N+](=O)[O-]
- GI50 [18]: > 100 µM (inactive)
- GI50 [2]: 70.3 µM (inactive)
- GI50 [3]: 23.4 µM (inactive)
- GI50 [4]: > 100 µM (inactive)
- GI50 [5]: 55.8 µM (inactive)
- GI50 [6]: 29.4 µM (inactive)
- GI50 [7]: 31.3 µM (inactive)
- GI50 [8]: 27.7 µM (inactive)
- GI50 [9]: 17 µM (inactive)
- GI50 [10]: 32.9 µM (inactive)
- GI50 [11]: > 100 µM (inactive)
- GI50 [19]: 26.2 µM (inactive)
- GI50 [12]: 27.9 µM (inactive)
- GI50 [13]: 53.5 µM (inactive)
- GI50 [14]: 38.3 µM (inactive)
- GI50 [15]: 31 µM (inactive)
- GI50 [16]: > 100 µM (inactive)
- GI50 [17]: 40.1 µM (inactive)
- GI50 [20]: 97.3 µM (inactive)

Compound: COc1cc(O)cc(/C=C/c2ccc(O)cc2)c1
- GI50 [1]: 32.6 µM (inactive)
- GI50 [18]: 90.4 µM (inactive)
- GI50 [2]: 25.4 µM (inactive)
- GI50 [3]: 41.3 µM (inactive)
- GI50 [4]: 33.1 µM (inactive)
- GI50 [5]: 21.6 µM (inactive)
- GI50 [6]: 27.5 µM (inactive)
- GI50 [7]: 44.6 µM (inactive)
- GI50 [8]: 20.7 µM (inactive)
- GI50 [9]: 30.7 µM (inactive)
- GI50 [10]: 48.8 µM (inactive)
- GI50 [11]: > 100 µM (inactive)
- GI50 [19]: 32 µM (inactive)
- GI50 [13]: 28.2 µM (inactive)
- GI50 [14]: 49.1 µM (inactive)
- GI50 [15]: 4.07 µM (inactive)
- GI50 [16]: > 100 µM (inactive)
- GI50 [17]: 22.4 µM (inactive)
- GI50 [20]: 25.7 µM (inactive)
